According to patent US9670227B2, “Thienopyrimidine derivatives, a process for their preparation and pharmaceutical compositions containing them” (LES LABORATOIRES SERVIER, priority 2013, dated 2017):
Read-outs that look alike come from different tables or passages of the source.

Assays:
Mcl-1 protein = Mcl-1 protein (UniProtKB primary accession number: Q07820) (Homo sapiens, UniProt Q07820); assay: Inhibition of Mcl-1 by fluorescence polarisation, Method 1; type: binding; settings: read-out: IC50 (M) Mcl-1 FP
Mcl-1 protein, sequence (Q07820 whole entry): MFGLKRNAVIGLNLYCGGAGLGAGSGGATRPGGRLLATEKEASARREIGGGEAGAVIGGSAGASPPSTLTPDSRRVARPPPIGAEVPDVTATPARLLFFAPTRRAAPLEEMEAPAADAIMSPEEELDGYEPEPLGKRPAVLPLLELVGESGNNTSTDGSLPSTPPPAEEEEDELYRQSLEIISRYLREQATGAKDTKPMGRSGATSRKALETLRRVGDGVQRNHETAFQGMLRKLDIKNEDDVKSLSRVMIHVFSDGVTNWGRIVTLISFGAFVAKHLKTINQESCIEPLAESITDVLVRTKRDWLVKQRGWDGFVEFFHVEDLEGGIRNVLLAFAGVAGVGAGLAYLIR
Summary of the method: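 Fluorescence polarisation competition with an 11-point compound dilution series (final DMSO 5%). Mcl-1 protein at 5 nM and fluorescein-labelled ligand at 1 nM (final) in 10 mM HEPES, 150 mM NaCl, 0.05% Tween 20, pH 7.4.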

[1] = tested on: H929 multiple myeloma tumour line; assay: In vitro cytotoxicity, Microculture Tetrazolium Assay; type: cell-based; settings: H929 cells, 48 hours exposure, MTT, read-out: IC50 (μM) MTT H929
Method: The cytotoxicity studies were carried out on the H929 multiple myeloma tumour line.
The cells are distributed onto microplates and exposed to the test compounds for 48 hours.

[2] = fluorescence polarisation, Method 1, or Method 2
[3] = fluorescence polarisation test, Method 2 values are underlined in the patent (underlining not visible here)

## CCc1sc2ncnc(OC(Cc3ccccc3)C(=O)O)c2c1-c1ccc(OCCc2cccnc2)c(Cl)c1C [Example 396, (2R)-2-[((5Sa)-5-{3-chloro-2-methyl-4-[2-(pyridin-3-yl)ethoxy]phenyl}-6-ethylthieno[2,3-d]pyrimidin-4-yl)oxy]-3-phenylpropanoic acid]
Mcl-1 protein; [2]
  IC50: 9.9e-08 M
[1]; Homo sapiens, NCI-H929, 48 h
  IC50: 16.1 µM

## Cc1sccc1-c1nccc(COc2ccccc2CC(Oc2ncnc3sc(-c4ccc(F)cc4)c(-c4ccc(OCCN5CCN(C)CC5)c(Cl)c4C)c23)C(=O)O)n1 [Example 121, (2R)-2-{[(5Sa)-5-{3-chloro-2-methyl-4-[2-(4-methylpiperazin-1-yl)ethoxy]phenyl}-6-(4-fluorophenyl)thieno[2,3-d]pyrimidin-4-yl]oxy}-3-(2-{[2-(2-methylthiophen-3-yl)pyrimidin-4-yl]methoxy}phenyl)propanoic acid]
Mcl-1 protein; [3]
  IC50: 5.6e-09 M
[1]; Homo sapiens, NCI-H929, 48 h
  IC50: 0.015 µM

## COc1ccccc1Cn1nccc1COc1ccccc1CC(Oc1ncnc2sc(-c3ccc(F)cc3)c(-c3ccc(OCCN4CCN(C)CC4)c(Cl)c3C)c12)C(=O)O [Example 739, (2R)-2-{[(5Sa)-5-{3-chloro-2-methyl-4-[2-(4-methylpiperazin-1-yl)ethoxy]phenyl}-6-(4-fluorophenyl)thieno[2,3-d]pyrimidin-4-yl]oxy}-3-(2-{[1-(2-methoxybenzyl)-1H-pyrazol-5-yl]methoxy}phenyl)propanoic acid]
Mcl-1 protein; [2]
  IC50: 2.32e-09 M
[1]; Homo sapiens, NCI-H929, 48 h
  IC50: 0.093 µM

## COc1ccccc1CC(Oc1ncnc2sc(-c3ccc(F)o3)c(-c3ccc(OCCN(C)C)c(Cl)c3C)c12)C(=O)O [Example 199, (2R)-2-{[(5Sa)-5-{3-chloro-4-[2-(dimethylamino)ethoxy]-2-methylphenyl}-6-(5-fluorofuran-2-yl)thieno[2,3-d]pyrimidin-4-yl]oxy}-3-(2-methoxyphenyl)propanoic acid]
Mcl-1 protein; [3]
  IC50: 6.6e-09 M
[1]; Homo sapiens, NCI-H929, 48 h
  IC50: 0.28 µM

## Cc1c(-c2c(-c3ccco3)sc3ncnc(OC(Cc4ccccc4OCc4ccnc(N5CCOCC5)n4)C(=O)O)c23)ccc(OCCN2CCN(C)CC2)c1Cl [Example 252, (2R)-2-{[(5Sa)-5-{3-chloro-2-methyl-4-[2-(4-methylpiperazin-1-yl)ethoxy]phenyl}-6-(furan-2-yl)thieno[2,3-d]pyrimidin-4-yl]oxy}-3-(2-{[2-(morpholin-4-yl)pyrimidin-4-yl]methoxy}phenyl)propanoic acid]
Mcl-1 protein; [3]
  IC50: 4.2e-09 M
[1]; Homo sapiens, NCI-H929, 48 h
  IC50: 0.009 µM

## CC#Cc1sc2ncnc(OC(Cc3ccccc3OC)C(=O)O)c2c1-c1cc(F)c(OCCN2CCN(C)CC2)c(Cl)c1C [Example 476, (2R)-2-{[(5Sa)-5-{3-chloro-5-fluoro-2-methyl-4-[2-(4-methylpiperazin-1-yl)ethoxy]phenyl}-6-(prop-1-yn-1-yl)thieno[2,3-d]pyrimidin-4-yl]oxy}-3-(2-methoxyphenyl)propanoic acid]
Mcl-1 protein; [2]
  IC50: 2e-08 M
[1]; Homo sapiens, NCI-H929, 48 h
  IC50: 1.03 µM

## CCOc1cccc(COc2ccccc2CC(Oc2ncnc3sc(-c4ccc(F)cc4)c(-c4ccc(OCCN5CCN(C)CC5)c(Cl)c4C)c23)C(=O)O)n1 [Example 13, (2R)-2-{[(5Sa)-5-{3-chloro-2-methyl-4-[2-(4-methylpiperazin-1-yl)ethoxy]phenyl}-6-(4-fluorophenyl)thieno[2,3-d]pyrimidin-4-yl]oxy}-3-{2-[(6-ethoxypyridin-2-yl)methoxy]phenyl}propanoic acid]
Mcl-1 protein; [3]
  IC50: 2.2e-08 M
[1]; Homo sapiens, NCI-H929, 48 h
  IC50: 0.146 µM

## Cc1c(-c2c(-c3ccc(Cl)o3)sc3ncnc(OC(Cc4ccccc4OCc4ccccn4)C(=O)O)c23)ccc(OCCN2CCN(C)CC2)c1Cl [Example 366, (2R)-2-{[6-(5-chlorofuran-2-yl)-(5Sa)-5-{3-chloro-2-methyl-4-[2-(4-methylpiperazin-1-yl)ethoxy]phenyl}thieno[2,3-d]pyrimidin-4-yl]oxy}-3-[2-(pyridin-2-ylmethoxy)phenyl]propanoic acid]
Mcl-1 protein; [3]
  IC50: 8.6e-09 M
[1]; Homo sapiens, NCI-H929, 48 h
  IC50: 0.346 µM

## Cc1c(-c2c(-c3ccco3)sc3ncnc(OC(Cc4ccccc4OCc4cncs4)C(=O)O)c23)ccc(OCCN2CCN(C)CC2)c1Cl [Example 278, (2R)-2-{[(5Sa)-5-{3-chloro-2-methyl-4-[2-(4-methylpiperazin-1-yl)ethoxy]phenyl}-6-(furan-2-yl)thieno[2,3-d]pyrimidin-4-yl]oxy}-3-[2-(1,3-thiazol-5-ylmethoxy)phenyl]propanoic acid]
Mcl-1 protein; [3]
  IC50: 6.7e-09 M
[1]; Homo sapiens, NCI-H929, 48 h
  IC50: 0.202 µM

## Cc1c(-c2c(-c3ccco3)sc3ncnc(OC(Cc4ccccc4F)C(=O)O)c23)ccc(OCCN2CCN(C)CC2)c1Cl [Example 341, (2S)-2-{[(5Ra)-5-{3-chloro-2-methyl-4-[2-(4-methylpiperazin-1-yl)ethoxy]phenyl}-6-(furan-2-yl)thieno[2,3-d]pyrimidin-4-yl]oxy}-3-(2-fluorophenyl)propanoic acid]
Mcl-1 protein; [3]
  IC50: 3.5e-08 M
[1]
  IC50: 0.706 µM

## COc1ncc(COc2ccccc2CC(Oc2ncnc3sc(-c4ccco4)c(-c4ccc(OCCN5CCN(C)CC5)c(Cl)c4C)c23)C(=O)O)cn1 [Example 274, (2R)-2-{[(5Sa)-5-{3-chloro-2-methyl-4-[2-(4-methylpiperazin-1-yl)ethoxy]phenyl}-6-(furan-2-yl)thieno[2,3-d]pyrimidin-4-yl]oxy}-3-{2-[(2-methoxypyrimidin-5-yl)methoxy]phenyl}propanoic acid]
Mcl-1 protein; [3]
  IC50: 7.7e-09 M
[1]; Homo sapiens, NCI-H929, 48 h
  IC50: 0.131 µM

## Cc1c(-c2c(-c3ccco3)sc3ncnc(OC(Cc4ccccc4OCc4c5ccccc5nn4C)C(=O)O)c23)ccc(OCCN2CCN(C)CC2)c1Cl [Example 282, (2R)-2-{[(5Sa)-5-{3-chloro-2-methyl-4-[2-(4-methylpiperazin-1-yl)ethoxy]phenyl}-6-(furan-2-yl)thieno[2,3-d]pyrimidin-4-yl]oxy}-3-{2-[(2-methyl-2H-indazol-3-yl)methoxy]phenyl}propanoic acid]
Mcl-1 protein; [3]
  IC50: 4e-08 M
[1]; Homo sapiens, NCI-H929, 48 h
  IC50: 0.601 µM

## Cc1cc(-c2sc3ncnc(OC(Cc4ccccc4)C(=O)O)c3c2-c2ccc(OCCN3CCN(C)CC3)c(Cl)c2C)cs1 [Example 514, (2R)-2-{[(5Sa)-5-{3-chloro-2-methyl-4-[2-(4-methylpiperazin-1-yl)ethoxy]phenyl}-6-(5-methylthiophen-3-yl)thieno[2,3-d]pyrimidin-4-yl]oxy}-3-phenylpropanoic acid]
Mcl-1 protein; [2]
  IC50: 9.6e-08 M
[1]; Homo sapiens, NCI-H929, 48 h
  IC50: 1.7 µM

## Cc1cc(COc2ccccc2CC(Oc2ncnc3sc(-c4ccco4)c(-c4ccc(OCCN5CCN(C)CC5)c(Cl)c4C)c23)C(=O)O)n(C)n1 [Example 225, (2R)-2-{[(5Sa)-5-{3-chloro-2-methyl-4-[2-(4-methylpiperazin-1-yl)ethoxy]phenyl}-6-(furan-2-yl)thieno[2,3-d]pyrimidin-4-yl]oxy}-3-{2-[(1,3-dimethyl-1H-pyrazol-5-yl)methoxy]phenyl}propanoic acid]
Mcl-1 protein; [3]
  IC50: 8.4e-09 M
[1]; Homo sapiens, NCI-H929, 48 h
  IC50: 0.105 µM

## COc1ccc(COc2ccc(-c3sc4ncnc(OC(Cc5ccccc5OCc5ccnc(-c6ccccc6OC)n5)C(=O)O)c4c3-c3ccc(OCCN4CCN(C)CC4)c(Cl)c3C)cc2)cc1 [Example 770, (2R)-2-[((5Sa)-5-{3-chloro-2-methyl-4-[2-(4-methylpiperazin-1-yl)ethoxy]phenyl}-6-{4-[(4-methoxybenzyl)oxy]phenyl}thieno[2,3-d]pyrimidin-4-yl)oxy]-3-(2-{[2-(2-methoxyphenyl)pyrimidin-4-yl]methoxy}phenyl)propanoic acid]
Mcl-1 protein; [2]
  IC50: 1.01e-09 M
[1]; Homo sapiens, NCI-H929, 48 h
  IC50: 0.01 µM

## CCN(CC)CCOc1ccc(-c2c(-c3ccc(F)cc3)sc3ncnc(OC(Cc4ccccc4OCc4ccnc(-c5ccccc5F)n4)C(=O)O)c23)c(C)c1Cl [Example 746, (2R)-2-{[(5Sa)-5-{3-chloro-4-[2-(diethylamino)ethoxy]-2-methylphenyl}-6-(4-fluorophenyl)thieno[2,3-d]pyrimidin-4-yl]oxy}-3-(2-{[2-(2-fluorophenyl)pyrimidin-4-yl]methoxy}phenyl)propanoic acid]
Mcl-1 protein; [2]
  IC50: 3.5e-09 M
[1]; Homo sapiens, NCI-H929, 48 h
  IC50: 0.111 µM

## COc1ccc(F)cc1CC(Oc1ncnc2sc(-c3ccco3)c(-c3ccc(OCCN4CCN(C)CC4)c(Cl)c3C)c12)C(=O)O [Example 345, (2R)-2-{[(5Sa)-5-{3-chloro-2-methyl-4-[2-(4-methylpiperazin-1-yl)ethoxy]phenyl}-6-(furan-2-yl)thieno[2,3-d]pyrimidin-4-yl]oxy}-3-(5-fluoro-2-methoxyphenyl)propanoic acid]
Mcl-1 protein; [3]
  IC50: 8.6e-09 M
[1]; Homo sapiens, NCI-H929, 48 h
  IC50: 0.322 µM

## Cc1c(-c2c(-c3ccco3)sc3ncnc(OC(Cc4ccccc4OCc4ccc(Cl)cn4)C(=O)O)c23)ccc(OCCN2CCN(C)CC2)c1Cl [Example 231, (2R)-2-{[(5Sa)-5-{3-chloro-2-methyl-4-[2-(4-methylpiperazin-1-yl)ethoxy]phenyl}-6-(furan-2-yl)thieno[2,3-d]pyrimidin-4-yl]oxy}-3-{2-[(5-chloropyridin-2-yl)methoxy]phenyl}propanoic acid]
Mcl-1 protein; [3]
  IC50: 1e-08 M
[1]; Homo sapiens, NCI-H929, 48 h
  IC50: 0.116 µM

## CCc1sc2ncnc(OC(Cc3ccccc3)C(=O)O)c2c1-c1ccc(OCCCN2CCCC2=O)c(Cl)c1C [Example 401, (2R)-2-[((5Sa)-5-{3-chloro-2-methyl-4-[3-(2-oxopyrrolidin-1-yl)propoxy]phenyl}-6-ethylthieno[2,3-d]pyrimidin-4-yl)oxy]-3-phenylpropanoic acid]
Mcl-1 protein; [2]
  IC50: 4.9e-08 M
[1]; Homo sapiens, NCI-H929, 48 h
  IC50: 22.3 µM

## COCCOCCOc1ccccc1CC(Oc1ncnc2sc(-c3ccc(F)cc3)c(-c3ccc(OCCN4CCN(C)CC4)c(Cl)c3C)c12)C(=O)O [Example 105, (2R)-2-{[(5Sa)-5-{3-chloro-2-methyl-4-[2-(4-methylpiperazin-1-yl)ethoxy]phenyl}-6-(4-fluorophenyl)thieno[2,3-d]pyrimidin-4-yl]oxy}-3-{2-[2-(2-methoxyethoxy)ethoxy]phenyl}propanoic acid]
Mcl-1 protein; [3]
  IC50: 1.2e-08 M
[1]; Homo sapiens, NCI-H929, 48 h
  IC50: 0.251 µM
